The values below come from ChEMBL document CHEMBL1201862, “PubChem BioAssay data set” (2004).

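48-hour exposure; five concentrations; linearly interpolated endpoints. Here, GI50 denotes the concentration required for 50% inhibition of growth.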 The source made the active and inactive calls. Cut-off read from the data, not from the text of the source: active = GI50 up to about 1.1 µM and inactive = higher. A value given as a limit tells only on which side of the number the result lay.

Among the test systems are SK-MEL-5; M14; HL-60; HCT-15; UACC-257; NCI/ADR-RES; UO-31; RXF 393; A498; OVCAR-5; MDA-MB-231; SF-295; IGROV-1; NCI-H460; NCI-H522; SK-OV-3; MDA-MB-435; MOLT-4; HOP-92; SF-268.
Holding throughout (experiment): growth of human tumour cells (NCI), 48 h

Consider `FC(F)(F)c1cccc(-c2nc3nc(Cl)c(Cl)nc3[nH]2)c1`, for which the GI50 was 0.544 µM (active) in the assay with SK-MEL-5; 3.42 µM (inactive) in the assay on M14; 1.69 µM (inactive) in the assay on HL-60; 2.64 µM in the assay on HCT-15; 2.22 µM (inactive) with UACC-257; 2.53 µM (inactive) in the assay with NCI/ADR-RES. For the same molecule, the GI50 in the assay with UO-31 was 2.24 µM (inactive); with RXF 393, 3.1 µM (inactive); in the assay on A498 it was 1.75 µM (inactive); in the assay on OVCAR-5, 2.48 µM (inactive); in the assay on MDA-MB-231, 2.02 µM (inactive); in the assay with SF-295, 2.05 µM (inactive). For the same molecule, the GI50 in the assay with IGROV-1 is 2.99 µM (inactive); with NCI-H460, 2.01 µM (inactive); with NCI-H522, 0.764 µM (active); in the assay with SK-OV-3 it was 2.86 µM (inactive); in the assay with MDA-MB-435, 2.52 µM (inactive); in the assay on MOLT-4 it was 2.18 µM (inactive). In addition, the GI50 was 0.889 µM (active) with HOP-92 and 3.03 µM (inactive) with SF-268.

For `CCCCc1ccc(Nc2nc(Cl)c3c(ncn3COCCOC(C)=O)n2)cc1`, the GI50 in the assay with SK-MEL-5 is 18.7 µM (inactive); with M14 it was 17.9 µM (inactive); in the assay with HL-60 it was 21.6 µM (inactive); in the assay on HCT-15 it was 16.3 µM; with UACC-257, 17.1 µM (inactive); in the assay with NCI/ADR-RES it was 23.5 µM (inactive). Further, the GI50 is 18.7 µM (inactive) with UO-31; 12.9 µM (inactive) in the assay on RXF 393; 20.5 µM (inactive) in the assay on A498; 18.5 µM (inactive) with OVCAR-5; 18.5 µM (inactive) in the assay with MDA-MB-231; 14.4 µM (inactive) in the assay with SF-295. The GI50 is 19.2 µM (inactive) with IGROV-1; 18.3 µM (inactive) with NCI-H460; 17.2 µM (inactive) in the assay on NCI-H522; 17.1 µM (inactive) in the assay on SK-OV-3; 17.7 µM (inactive) in the assay with MDA-MB-435; 20.4 µM (inactive) in the assay with MOLT-4. Moreover, the GI50 in the assay with HOP-92 was 18.6 µM (inactive); in the assay with SF-268 it was 19.2 µM (inactive).

`CCc1ccccc1N1CCN(C(=O)c2cc(OC)c(OC)c(OC)c2)CC1`: the GI50 in the assay on SK-MEL-5 is 0.0154 µM (active); in the assay with M14, 0.0135 µM (active); in the assay on HL-60, 0.0233 µM (active); in the assay with HCT-15, 0.0259 µM; with UACC-257, 0.0247 µM (active); in the assay with NCI/ADR-RES, 0.0151 µM (active). The GI50 with UO-31 is 0.0685 µM (active); in the assay with RXF 393, 0.0105 µM (active); in the assay with A498, 0.0303 µM (active); in the assay on OVCAR-5, 4.14 µM (inactive); with MDA-MB-231, 0.057 µM (active); in the assay with SF-295, 0.0134 µM (active). For the same molecule, the GI50 is 0.0462 µM (active) with IGROV-1; 0.0307 µM (active) with NCI-H460; 0.0134 µM (active) in the assay on NCI-H522; 0.0375 µM (active) with SK-OV-3; < 0.01 µM (active) in the assay with MDA-MB-435; 0.148 µM (active) in the assay on MOLT-4. Also, the figures for the GI50 with HOP-92 and with SF-268 were 0.0977 µM (active) and 0.114 µM (active), respectively.

For `COc1cc2c3cc1Oc1c(OC)c(OC)cc4c1C(Cc1ccc(O)c(c1)Oc1ccc(cc1)CC3N(C)CC2)CN(C)C4` (stereo not given), the GI50 was 13.5 µM (inactive) in the assay on SK-MEL-5; 4.1 µM (inactive) with M14; 1.11 µM (active) in the assay with HL-60; 14 µM with HCT-15; 13.5 µM (inactive) in the assay with UACC-257; 19.3 µM (inactive) in the assay with NCI/ADR-RES. For the same molecule, the GI50 in the assay on UO-31 is 16.1 µM (inactive); with RXF 393, 10.6 µM (inactive); in the assay on A498, 16.9 µM (inactive); in the assay on OVCAR-5 it was 21.5 µM (inactive); in the assay with MDA-MB-231 it was 12.2 µM (inactive); in the assay on SF-295, 17.9 µM (inactive). For the same molecule, the GI50 is 20.5 µM (inactive) with IGROV-1; 16 µM (inactive) in the assay with NCI-H460; 12.5 µM (inactive) with NCI-H522; 23.4 µM (inactive) in the assay on SK-OV-3; 11.5 µM (inactive) with MDA-MB-435; 7.31 µM (inactive) in the assay on MOLT-4. For the same molecule, the values for the GI50 in the assay with HOP-92 and in the assay with SF-268 were 16 µM (inactive) and 20.4 µM (inactive), respectively.

Turning to `CN(C)CCCNc1nnc(NCCCN(C)C)c2c(=O)c3sccc3[nH]c12`, the GI50 was 1.4 µM (inactive) in the assay on SK-MEL-5; 11.7 µM (inactive) in the assay with M14; 3.59 µM (inactive) with HL-60; 6.62 µM in the assay with HCT-15; 22.4 µM (inactive) with UACC-257; 8.15 µM (inactive) in the assay on NCI/ADR-RES. For the same molecule, the GI50 in the assay with UO-31 was 2.75 µM (inactive); in the assay with RXF 393, 15 µM (inactive); in the assay with A498 it was 41.4 µM (inactive); in the assay with OVCAR-5, 16.6 µM (inactive); with MDA-MB-231, 6 µM (inactive); in the assay with SF-295, 13.7 µM (inactive). For the same molecule, the GI50 with IGROV-1 is 5.69 µM (inactive); in the assay on NCI-H460, 3.51 µM (inactive); in the assay with NCI-H522, 4.02 µM (inactive); with SK-OV-3, 12.9 µM (inactive); in the assay with MDA-MB-435 it was 8.15 µM (inactive); in the assay with MOLT-4, 3.24 µM (inactive). Besides, the GI50 in the assay with HOP-92 was 35.8 µM (inactive); in the assay with SF-268, 5.53 µM (inactive).

For `COc1cc(OC)c(OC)cc1/C=C/c1nc2ccccc2s1`, the GI50 with SK-MEL-5 was > 100 µM (inactive); in the assay with M14 it was 17.6 µM (inactive); with HL-60, 5.52 µM (inactive); in the assay with HCT-15 it was more than 100 µM; in the assay with UACC-257, > 100 µM (inactive); in the assay on NCI/ADR-RES, > 100 µM (inactive). The GI50 with UO-31 is 47.2 µM (inactive); in the assay on RXF 393, 23.3 µM (inactive); with A498 it was 86.5 µM (inactive); with OVCAR-5 it was > 100 µM (inactive); in the assay with MDA-MB-231, > 100 µM (inactive); in the assay with SF-295, 67 µM (inactive). For the same molecule, the GI50 is > 100 µM (inactive) in the assay with IGROV-1; > 100 µM (inactive) in the assay on NCI-H460; 40.6 µM (inactive) with NCI-H522; > 100 µM (inactive) with SK-OV-3; 3.1 µM (inactive) in the assay on MDA-MB-435; 34.2 µM (inactive) with MOLT-4. Besides, the GI50 in the assay on HOP-92 is 6.35 µM (inactive); with SF-268, > 100 µM (inactive).

Consider `Nc1c2c(nc3ccccc13)-c1ccccc1CCC2`, for which the GI50 in the assay on SK-MEL-5 is 7.91 µM (inactive); in the assay with M14, 13.1 µM (inactive); in the assay with HL-60 it was 10.1 µM (inactive); with HCT-15, 14.3 µM; in the assay on UACC-257 it was 5.94 µM (inactive); in the assay on NCI/ADR-RES, 14.2 µM (inactive). Besides, the GI50 was 10.5 µM (inactive) with UO-31; 11.2 µM (inactive) with RXF 393; 8.22 µM (inactive) in the assay with A498; 13 µM (inactive) in the assay on OVCAR-5; 13.8 µM (inactive) in the assay on MDA-MB-231; 5.98 µM (inactive) in the assay with SF-295. Besides, the GI50 in the assay with IGROV-1 was 14.1 µM (inactive); with NCI-H460 it was 4.89 µM (inactive); in the assay with NCI-H522, 15.6 µM (inactive); in the assay on SK-OV-3, 15.2 µM (inactive); with MDA-MB-435, 13.5 µM (inactive); in the assay with MOLT-4, 8.34 µM (inactive). The results for the GI50 in the assay on HOP-92 and in the assay on SF-268 were 9.12 µM (inactive) and 17.6 µM (inactive), respectively.
